Assay results taken from patent publication US11066371B2, “Pyridine compound, making, and use thereof” (UNITED ARAB EMIRATES UNIVERSITY, priority 2015, dated 2021).

melting point: > 300 °C
Compound: Cc1c(C#N)c([O-])nc(-c2ccccc2)c1/N=N/c1ccc([N+](=O)[O-])cc1.[K+]
